Key:
Assay in all cases: Effect of metallic ions and chemical compounds on chitinase activity
Assay type in all cases: biochemical, P. orarium
Conditions in all cases: relative to standard MAT buffer control (100%); ions and EDTA 1 mM, Tween 20 0.5% v/v, SDS 0.5% w/v; 2 μM enzyme
[1] = test system: recombinant chitinase C4
Description: (§1) The addition of different co-factors and chemicals was assessed to determine whether they stimulate or inhibit enzymatic activity and the effect was evaluated relative to the control in standard MAT buffer (33 mM 2-(N-morpholino) ethanesulfonic acid (MES), 33 mM sodium acetate, 33 mM Tris(hydroxymethyl) aminomethane (TRIS); pH 8.0). The selection of tested compounds at the respective concentrations was based on findings for different chitinases so far [Zarei et al., J. Microbiol., 2011. 42: p. 1017-1029.]. […] All enzymes were inhibited the strongest by Zn2+ and Cu2+ and SDS (0.5% w/v) resulting in a relative loss of activity of up to 99%. […] Inhibitory effects of Ni2+ and imidazole on enzymatic activity also underline the requirement for dialysis of the elution fractions after purification in order to remove residual Ni2+ and imidazole from the elution buffer.
(§2) Enzyme samples were incubated at different temperature (10-60° C., 10° C. increment) and pH (4-11, increment 1) using different buffer systems (Acetate, Tris-HCl, MES, total molar concentration 100 mM), as well as NaCl content (0, 1. 2.5, 5, 10 and 20% w/v) to determine optimum reaction conditions. All experiments were carried out at 1.0 ml scale using 2 μM of the respective enzymes and a 5% (wv) suspension of chitin powder extracted from shrimp shells (˜400.000 g/mol; Carl, Roth) in 100 mM MAT buffer. For the determination of the substrate specificity, chitin powder (5% w/v), glycol chitin (10% v/v), colloidal chitin (5% w/v), chitosan [DA 15-25%, medium molecular weight, Sigma-Aldrich] (5% w/v) and microcrystalline cellulose powder (Sigma Aldrich) (5% w/v) were investigated, respectively. The effect of several potential co-factors on activity was elucidated at a concentration of 1 mM. Additionally, the effect of detergents [SDS 0.5% (w/v), Tween-20 and Triton X-100 both at 0.5% (v/v)] and chemicals (Imidazole 100 mM, EDTA 1 mM) on enzymatic activity was assessed. Samples were incubated in a thermomixer for 16 h at 900 rpm. After incubation, samples were analyzed using the enzyme assay. Thermostability was assessed after incubation of recombinant chitinases at 60° C. for different durations followed by the quantification of residual enzyme activity under standard assay conditions.

[2] = test system: recombinant chitinase C2
Description: as §1, §2

[3] = test system: recombinant chitinase C1
Description: as §1, §2

[4] = test system: recombinant chitinase C5
Description: as §1, §2

[5] = test system: recombinant chitinase C3
Description: as §1, §2

SMILES	[%] Residual activity C4 [1]	[%] Residual activity C2 [2]	[%] Residual activity C1 [3]	[%] Residual activity C5 [4]	[%] Residual activity C3 [5]
[Ca+2] [Ca^2+]	3.8 ± 0.4%	35.6 ± 1.7%	92.7 ± 2.1%	21.3 ± 0.1%	94.7 ± 2.0%
[Cu+2] [Cu^2+]	14.8 ± 3.4%	12.3 ± 0.9%	11.1 ± 3.7%	3.9 ± 2.9%	16.9 ± 0.2%
O=C(O)CN(CCN(CC(=O)O)CC(=O)O)CC(=O)O [EDTA]	73.9 ± 4.1%	20.4 ± 1.6%	68.9 ± 0.7%	28.0 ± 0.9%	80.8 ± 4.8%
[K+] [K^2+]	3.7 ± 0.2%	44.8 ± 2.3%	100.1 ± 2.8%	28.6 ± 0.4%	72.6 ± 1.7%
[Mg+2] [Mg^2+]	3.3 ± 0.2%	38.7 ± 1.7%	99.8 ± 3.1%	25.8 ± 0.9%	68.8 ± 2.8%
[Ni+2] [Ni^2+]	38.8 ± 1.7%	23.0 ± 0.7%	76.6 ± 5.1%	5.6 ± 0.3%	64.8 ± 1.2%
CCCCCCCCCCCCOS(=O)(=O)[O-].[Na+] [SDS, sodium dodecyl sulfate]	33.2 ± 3.4%	21.6 ± 1.0%	1.5 ± 0.2%	19.9 ± 0.3%	2.4 ± 1.9%
[Zn+2] [Zn^2+]	8.1 ± 0.7%	2.3 ± 0.4%	30.5 ± 0.3%	0.6 ± 0.5%	21.7 ± 0.1%

— US20240287489A1, “CHITINOLYTIC ENZYME-BASED PLANT PROTECTION AGENTS” (GLOBACHEM NV, priority 2021, published 2024)
